Test results published in patent publication US6063926A, “Substituted oximes as neurokinin antagonists” (Schering Corporation, priority 1998, dated 2000).
Read-outs that look alike come from different tables or passages of the source.

Legend:
NK1 receptor = NK1 receptor (Homo sapiens, UniProt P25103); test: neurokinin receptor binding assay, NK1 (Ki)
Excerpt: (§1) The in vitro and in vivo activity of the compounds of formula I can be determined by various procedures known in the art, such as a test for their ability to inhibit the activity of the NK1 agonist Substance P, an isolated hamster trachea NK2 assay, a test of the effect of NK1 antagonists on Substance P-induced airway microvascular leakage, measurement of NK2 activity in vivo in guinea pigs, measurement of bronchoconstriction due to NKA, and neurokinin receptor binding assay(s). Typical procedures are described in WO96/34857, published Nov. 7, 1996. NK3 activity is determined by following a procedure similar to that described in the literature, e.g., Molecular Pharmacol., 48 (1995), p. 711-716.
(§2) % Inhibition is the difference between the percent of maximum specific binding (MSB) and 100%. The percent of MSB is defined by the following equation, wherein "dpm" is disintegrations per minute: [formula]
(§3) Using the test procedures described above, the following 35 data (Ki) were obtained for exemplified compounds: […]

NK2 receptor = target: T1, NK2 receptor (Homo sapiens, UniProt P21452); test: neurokinin receptor binding assay, NK2 (Ki)
T1 sequence (P21452 1-398): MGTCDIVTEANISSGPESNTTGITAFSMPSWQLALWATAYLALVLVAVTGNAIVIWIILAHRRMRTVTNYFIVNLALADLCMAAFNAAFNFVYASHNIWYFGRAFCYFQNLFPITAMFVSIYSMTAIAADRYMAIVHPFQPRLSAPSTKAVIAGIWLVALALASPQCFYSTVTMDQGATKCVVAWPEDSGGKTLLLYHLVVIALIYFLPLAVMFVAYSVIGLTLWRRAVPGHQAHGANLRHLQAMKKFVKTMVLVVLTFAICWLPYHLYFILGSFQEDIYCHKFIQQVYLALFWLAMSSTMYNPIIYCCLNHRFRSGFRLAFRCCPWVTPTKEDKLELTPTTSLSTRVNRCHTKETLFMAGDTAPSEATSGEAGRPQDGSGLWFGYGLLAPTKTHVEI
Excerpt: as §1, §2, §3

Chain of NK1 receptor (P25103 whole entry): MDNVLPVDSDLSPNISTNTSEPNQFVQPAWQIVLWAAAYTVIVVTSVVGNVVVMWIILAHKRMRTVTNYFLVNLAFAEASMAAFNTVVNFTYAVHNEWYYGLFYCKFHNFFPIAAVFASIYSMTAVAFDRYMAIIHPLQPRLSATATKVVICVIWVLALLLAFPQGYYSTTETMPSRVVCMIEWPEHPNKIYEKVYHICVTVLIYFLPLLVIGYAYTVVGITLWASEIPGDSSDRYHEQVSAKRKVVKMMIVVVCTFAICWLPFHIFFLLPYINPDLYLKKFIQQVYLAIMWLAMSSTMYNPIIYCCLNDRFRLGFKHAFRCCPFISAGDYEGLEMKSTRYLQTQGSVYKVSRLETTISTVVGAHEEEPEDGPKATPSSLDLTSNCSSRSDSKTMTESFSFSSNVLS

Structure (SMILES)	Ki (NK1 receptor; read-out: Ki (NK1)) [nM]	Ki (NK2 receptor; read-out: Ki (NK2)) [nM]	Ki (NK1 receptor; compound of Example 11, amide disclosed in U.S. Pat. No. 5,696,267, read-out: Ki for the NK1 receptor (unit inferred)) [nM]	Ki (NK2 receptor; compound of Example 11, amide disclosed in U.S. Pat. No. 5,696,267, read-out: Ki for the NK2 receptor (unit inferred)) [nM]
CO/N=C(\CN(C)C(=O)c1cc(C(F)(F)F)cc(C(F)(F)F)c1)C(CCN1CCC(O)(c2ccccc2)CC1)c1ccc(Cl)c(Cl)c1 (centres unmarked) [Example 11]	–	–	3.6	9.2
Cc1cc(C(=O)N(C)CC(=NOCC(N)=NO)C(CCN2CCC(O)(c3ccccc3)CC2)c2ccc(Cl)c(Cl)c2)cc(Cl)n1 (centres unmarked) [Example 31]	0.4	1.8	–	–
CN(CC(=NOCF)C(CCN1CCC(N2CCCCC2=O)CC1)c1ccc(Cl)c(Cl)c1)C(=O)c1cc(Cl)cc(Cl)c1 (centres unmarked) [Example 17S]	0.8	0.8	–	–
COc1cc(C(=O)N(C)CC(=NOCC(N)=NO)C(CCN2CCC(N3CCCCC3=O)CC2)c2ccc(Cl)c(Cl)c2)cc(OC)c1C (centres unmarked) [Example 21B]	6	0.5	–	–
CON=C(CN(C)C(=O)c1cc(Cl)cc(Cl)c1)C(CCN1CCC(N2CCCC(CC(=O)N3CC(O)C3)C2=O)CC1)c1ccc(Cl)c(Cl)c1 (centres unmarked) [Example 12E]	0.4	0.2	–	–
CCN(CC(=NOC)C(CCN1CCC(N2CCC[C@H](CC(N)=O)C2=O)CC1)c1ccc(Cl)c(Cl)c1)C(=O)c1cc(Cl)cc(Cl)c1 (some centres unmarked) [Example 28C]	0.4	0.6	–	–
Cc1cc(C)cc(C(=O)N(C)CC(=NOCC(=O)Nc2nncs2)C(CCN2CCC(N3CCCC(CC(=O)N(C)C)C3=O)CC2)c2ccc(Cl)c(Cl)c2)c1 (centres unmarked) [Example 19D]	0.9	1.4	–	–
CNC(=O)CON=C(CN(C)C(=O)c1cc(Cl)cc(Cl)c1)C(CCN1CCC(N2CCCC(CC(=O)NC)C2=O)CC1)c1ccc(Cl)c(Cl)c1 (centres unmarked) [Example 15E]	0.5	1	–	–
CNC(=O)CC1CCCN(C2CCN(CCC(C(CN(C)C(=O)c3cc(Cl)cc(Cl)c3)=NOCC(=O)NCS(=O)(=O)O)c3ccc(Cl)c(Cl)c3)CC2)C1=O (centres unmarked) [Example 15J]	0.7	4.3	–	–
CN(CC(=NOCCCS(=O)(=O)O)C(CCN1CCC(N2CCCCC2=O)CC1)c1ccc(Cl)c(Cl)c1)C(=O)c1cc(Cl)cc(Cl)c1 (centres unmarked) [Example 17K]	3.3	2.7	–	–
CN(CC(=NO)C(CCN1CCC(N2CCCC(CC(N)=O)C2=O)CC1)c1ccc(Cl)c(Cl)c1)C(=O)c1cc(Cl)cc(Cl)c1 (centres unmarked) [Example 16A]	0.2	0.7	–	–
CON=C(CN(C)C(=O)c1cc(Cl)cc(Cl)c1)C(CCN1CCC(N2CCCC(CC(=O)N3CCC(OC)CC3)C2=O)CC1)c1ccc(Cl)c(Cl)c1 (centres unmarked) [Example 25]	0.9	0.7	–	–
CON=C(CN(C)C(=O)c1cc(Cl)cc(Cl)c1)[C@H](CCN1CCC(N2CCC[C@H](CC(N)=O)C2=O)CC1)c1ccc(Cl)c(Cl)c1 [Example 13C]	0.4	0.2	–	–
CNC(=O)CC1CCCN(C2CCN(CCC(C(CN(C)C(=O)c3cc(Cl)cc(Cl)c3)=NOCC(N)=NOC)c3ccc(Cl)c(Cl)c3)CC2)C1=O (centres unmarked) [Example 15M]	0.2	0.3	–	–
CNC(=O)CC1CCCN(C2CCN(CCC(C(CN(C)C(=O)c3cc(Cl)cc(Cl)c3)=NOCF)c3ccc(Cl)c(Cl)c3)CC2)C1=O (centres unmarked) [Example 15K]	0.5	0.2	–	–
CNC(=O)CC1CCCN(C2CCN(CCC(C(CN(C)C(=O)c3cc(Cl)cc(Cl)c3)=NOCC#N)c3ccc(Cl)c(Cl)c3)CC2)C1=O (centres unmarked) [Example 15B]	1.7	0.8	–	–
CNC(=O)C[C@H]1CCCN(C2CC[N+]([O-])(CC[C@@H](C(CN(C)C(=O)c3cc(Cl)cc(Cl)c3)=NOC)c3ccc(Cl)c(Cl)c3)CC2)C1=O (some centres unmarked) [Example 13H]	2.6	0.4	–	–
CON=C(CN(C)C(=O)c1cc(C)nc(Cl)c1)C(CCN1CCC(O)(c2ccccc2)CC1)c1ccc(Cl)c(Cl)c1 (centres unmarked) [Example 30A]	1.4	1.9	–	–
CON=C(CN(C)C(=O)c1cc(Cl)cc(Cl)c1)[C@H](CCN1CCC(N2CCC[C@H](CC(=O)O)C2=O)CC1)c1ccc(Cl)c(Cl)c1 [Example 13E]	0.4	0.6	–	–
CON=C(N)CON=C(CN(C)C(=O)c1cc(OC)c(OC)c(OC)c1)C(CCN1CCC(O)(c2ccccc2)CC1)c1ccc(Cl)c(Cl)c1 (centres unmarked) [Example 37]	0.7	0.7	–	–
CON=C(CN(C)C(=O)c1cc(Cl)cc(Cl)c1)[C@H](CCN1CCC(N2CCC[C@H](CC(=O)N(C)C)C2=O)CC1)c1ccc(Cl)c(Cl)c1 [Example 13A]	0.8	0.2	–	–
COc1cc(C(=O)N(C)CC(=NOCC(N)=NO)C(CCN2CCC(O)(c3ccccc3)CC2)c2ccc(Cl)c(Cl)c2)cc(OC)c1OC (centres unmarked) [Example 23]	0.8	0.5	–	–

Further molecules by falling Ki (NK1 receptor; read-out: Ki (NK1)), results first:

Ki (NK1 receptor; read-out: Ki (NK1)) [nM]	Ki (NK2 receptor; read-out: Ki (NK2)) [nM]	Structure (SMILES)	Ki (NK1 receptor; compound of Example 11, amide disclosed in U.S. Pat. No. 5,696,267, read-out: Ki for the NK1 receptor (unit inferred)) [nM]	Ki (NK2 receptor; compound of Example 11, amide disclosed in U.S. Pat. No. 5,696,267, read-out: Ki for the NK2 receptor (unit inferred)) [nM]
5.2	1.3	CNC(=O)CC1CCCN(C2CCN(CCC(C(CNC(=O)c3cc(Cl)cc(Cl)c3)=NOC)c3ccc(Cl)c(Cl)c3)CC2)C1=O (centres unmarked) [Example 29B]	–	–
2.6	0.7	CON=C(CNC(=O)c1cc(Cl)cc(Cl)c1)C(CCN1CCC(N2CCC[C@H](CC(N)=O)C2=O)CC1)c1ccc(Cl)c(Cl)c1 (some centres unmarked) [Example 29C]	–	–
1.5	0.4	CON=C(CN(C)C(=O)c1cc(Cl)cc(Cl)c1)[C@H](CC[N+]1([O-])CCC(N2CCCCC2=O)CC1)c1ccc(Cl)c(Cl)c1 (some centres unmarked) [Example 13G]	–	–
1	1.4	CCON=C(CN(C)C(=O)c1cc(Cl)cc(Cl)c1)C(CCN1CCC(N2CCCC(CC(=O)NC)C2=O)CC1)c1ccc(Cl)c(Cl)c1 (centres unmarked) [Example 15L]	–	–
0.9	0.3	CNC(=O)C[C@H]1CCCN(C2CCN(CC[C@@H](C(CN(C)C(=O)c3cc(Cl)cc(Cl)c3)=NOC)c3ccc(Cl)c(Cl)c3)CC2)C1=O [Example 13B]	–	–
0.9	0.5	CON=C(CN(C)C(=O)c1cc(Cl)cc(Cl)c1)C(CCN1CCC(N2CCCC(CC(=O)N3CCOCC3)C2=O)CC1)c1ccc(Cl)c(Cl)c1 (centres unmarked) [Example 12K]	–	–
0.9	1.3	CNC(=O)CC1CCCN(C2CCN(CCC(C(CN(C)C(=O)c3cc(Cl)cc(Cl)c3)=NOCC(=O)Nc3nncs3)c3ccc(Cl)c(Cl)c3)CC2)C1=O (centres unmarked) [Example 15G]	–	–
0.8	1	CNC(=O)CC1CCCN(C2CCN(CCC(C(CN(C)C(=O)c3cc(Cl)cc(Cl)c3)=NOCC(=O)NCC#N)c3ccc(Cl)c(Cl)c3)CC2)C1=O (centres unmarked) [Example 15I]	–	–
0.8	0.4	CON=C(CN(C)C(=O)c1cc(C)cc(C)c1)C(CCN1CCC(N2CCCCC2=O)CC1)c1ccc(Cl)c(Cl)c1 (centres unmarked) [Example 18B]	–	–
0.7	0.7	CN(CC(=NOCC(N)=NO)C(CCN1CCC(N2CCCCC2=O)CC1)c1ccc(Cl)c(Cl)c1)C(=O)c1cc(Cl)cc(Cl)c1 (centres unmarked) [Example 17E]	–	–
0.7	1.2	CON=C(CN(C)C(=O)c1cc(C)cc(Cl)c1)C(CCN1CCC(N2CCCC(CC(=O)N(C)C)C2=O)CC1)c1ccc(Cl)c(Cl)c1 (centres unmarked) [Example 27]	–	–
0.6	1.8	CONC(=O)CON=C(CN(C)C(=O)c1cc(C)cc(C)c1)C(CCN1CCC(N2CCCC(CC(=O)N(C)C)C2=O)CC1)c1ccc(Cl)c(Cl)c1 (centres unmarked) [Example 19E]	–	–
0.6	0.3	CNC(=O)CC1CCCN(C2CCN(CCC(C(CN(C)C(=O)c3cc(C)cc(C)c3)=NOC)c3ccc(Cl)c(Cl)c3)CC2)C1=O (centres unmarked) [Example 35]	–	–
0.5	3	CN(CC(=NO)C(CCN1CCC(N2CCCCC2=O)CC1)c1ccc(Cl)c(Cl)c1)C(=O)c1cc(Cl)cc(Cl)c1 (centres unmarked) [Example 17A]	–	–
0.5	0.9	CON=C(CN(C)C(=O)c1cc(Cl)cc(Cl)c1)C(CCN1CCC(N2CCCC(CC(=O)N3CCC(O)CC3)C2=O)CC1)c1ccc(Cl)c(Cl)c1 (centres unmarked) [Example 12L]	–	–
0.4	0.8	CNC(=O)CC1CCCN(C2CCN(CCC(C(CN(C)C(=O)c3cc(Cl)cc(Cl)c3)=NOCC(N)=NO)c3ccc(Cl)c(Cl)c3)CC2)C1=O (centres unmarked) [Example 15F]	–	–
0.3	0.8	CN(C)C(=O)CC1CCCN(C2CCN(CCC(C(CN(C)C(=O)c3cc(Cl)cc(Cl)c3)=NO)c3ccc(Cl)c(Cl)c3)CC2)C1=O (centres unmarked) [Example 14B]	–	–
0.2	0.4	CON=C(N)CON=C(CN(C)C(=O)c1cc(C)cc(C)c1)C(CCN1CCC(N2CCCCC2=O)CC1)c1ccc(Cl)c(Cl)c1 (centres unmarked) [Example 18M]	–	–
0.2	0.2	Cc1cc(C)cc(C(=O)N(C)CC(=NOCC(N)=NO)C(CCN2CCC(N3CCCC(CC(=O)N(C)C)C3=O)CC2)c2ccc(Cl)c(Cl)c2)c1 (centres unmarked) [Example 19C]	–	–
0.2	0.4	CON=C(N)CON=C(CN(C)C(=O)c1cc(Cl)cc(Cl)c1)C(CCN1CCC(N2CCCC(CC(=O)N(C)C)C2=O)CC1)c1ccc(Cl)c(Cl)c1 (centres unmarked) [Example 14E]	–	–
0.2	0.3	CON=C(CN(C)C(=O)c1cc(Cl)cc(Cl)c1)[C@H](CCN1CCC(N2CCC[C@H](CC(=O)OC)C2=O)CC1)c1ccc(Cl)c(Cl)c1 [Example 13F]	–	–
